These results are taken from article PMC6858451, “Rhesus Theta Defensin 1 Promotes Long Term Survival in Systemic Candidiasis by Host Directed Mechanisms” (Scientific Reports, 2019).

For orientation: MIC means the lowest concentration that inhibits growth of the organism. By MFC is commonly meant the smallest concentration meeting the test's criterion for killing the fungus. Higher therefore signals less potent killing. One may read the Cmax as the maximum level reached in the sampled fluid or tissue. Broadly, the Tmax is the time from dosing to the highest level. Broadly, the bioavailability is the share of a dose that reaches the circulation, judged against a reference dose that is usually intravenous. By clearance is commonly meant the volume of plasma or blood freed of the substance per unit of time. A higher clearance goes with efficient removal. As a reminder, the half-life is the time needed for the level to fall by half in the phase considered.

≈ marks a conversion by molar mass, not a printed value. Bridge positions count the residues as written; N and C are the ends. Peptide text beside a SMILES is read from it.

The test system of one data set is C. albicans 43001. Nature of the data set: MIC/MFC, broth microdilution (modified CLSI M27-A2). It counts as cell-based. Here is the method: (§1) C. albicans strains were tested against RTD-1, fluconazole, and caspofungin in microdilution broth in accordance with Clinical and Laboratory Standards Institute (CLSI) document M27-A2 with the exception that 25 mM MOPS was used in place of 165 mM MOPS, as described previously. Overnight cultures were harvested by centrifugation, washed twice with Ca^2+ and Mg^2+-free PBS, pH 7.2, and suspended in test medium (RPMI 1640 medium, 25 mM MOPS, 2 mM L-glutamine) at 10^4 CFU/ml[62]. Incubations were conducted in flat bottom, 96-well microtiter plates (Greiner bio-one, Monroe, NC) containing 0.2 ml test medium per well. Duplicate 0.1 ml aliquots of serial two-fold dilutions of peptides and antifungal drugs were dispensed into wells, each of which was inoculated with 0.1 ml of fungal cell suspension containing 1 × 10^3 CFU. Plates were incubated at 30 °C for 48 hours after which A600 was determined using a SpectraMax M5e plate reader.
(§2) Minimal fungicidal concentration (MFC) was determined by plating, on YPD plates, 10 µl from wells in MIC assay without cell growth and the first well with measurable turbidity as described[63]–[66] and corresponding aliquots from the no-agent controls. […] MFC is reported as the lowest concentration of peptide or antifungal drug that killed ≥99% of the input organisms.
(§3) MICs and MFCs of RTD-1 were also performed in the presence of 50% mouse serum. Serum was prepared from blood collected by cardiac puncture from BALB/c mice. After coagulation at room temperature, serum was collected by centrifugation (200 g for 10 min followed by 23,000 g for 15 min), and diluted with an equal volume of yeast inoculum in MIC test medium described above.
For orientation: Dilution methods test growth across graded concentrations, often in twofold steps.

The next data set has as its system C. albicans 53264. The data set is described as above. Format: cell-based. Here is the method: as §1, §2, §3
Another data set has as its system C. albicans SC5314. The description is as above. Format: cell-based. Conditions: Candida albicans. How it is done: as §1, §2, §3
The subject of the next data set is C. albicans. The following applies: planktonic cells; cited from earlier work. From the text: RTD-1 is the prototype θ-defensin, the only known backbone cyclized polypeptides in the Animal Kingdom. All natural θ-defensin isoforms are 18-amino acid macrocycles stabilized by a six cysteine, tridisulfide core. […] As reported here and elsewhere, RTD-1 kills Candida ...

The conditions of data set [1]: cited from earlier work.
Data set [2] can be described thus: RTD-1 plasma pharmacokinetics. Here is the method:
RTD-1 plasma levels were also analyzed 60 or 240 min after additional daily 5 mg/kg i.p. doses administered up to 6 days.
Single dose PK of RTD-1 was evaluated by quantifying plasma peptide concentrations at intervals following 5 mg/kg bolus injections administered i.v. and i.p. to CD-1 mice. At indicated intervals, plasma was prepared from EDTA-anticoagulated blood collected aseptically by terminal cardiac puncture. Plasma was diluted 1:10 or 1:20 into 5% formic/5% acetonitrile. RTD-1 plasma concentrations were determined by reverse-phase liquid chromatography (XBridge phenyl 3.5 µm column, Waters) on an Acquity H-Class UPLC (Waters) with tandem electrospray mass spectroscopy on a Xevo TQ-S running MassLynx V4.1 (Waters). Quantitative mass spectroscopy was performed by multiple-reaction monitoring transition 417.38 > 517.14, with area under the curve determined by TargetLynx (Waters). Pharmacokinetic modeling of intravenous RTD-1 concentration-time data was performed with ADAPT (version 5) software using the naïve pooled data approach. One- and two-compartment models were evaluated. Model selection was based on the Akaike information criterion (AIC) and the Bayesian information criterion (BIC) scores, the likelihood ratio test (LRT), and goodness-of-fit plots. […] Area under the curve (AUC24) was calculated by taking the average of RTD-1 concentrations at each time point and applying the linear trapezoidal method. Bioavailability (F) for i.p. injection was determined using the ratio of AUCs from i.p. and i.v.

The conditions of data set [3]: cited from earlier work. The source holds these as a separate data set.
The subject of data set [4] is C. albicans 53264 biofilms. Nature of the data set: Biofilm XTT metabolic assay. It counts as cell-based. The following applies: pre-adhesion, 2 h adherent and 24 h mature biofilms. How it is done:
The antifungal activities of RTD-1, caspofungin and fluconazole were evaluated against biofilms of C. albicans SC5314 and 53264 essentially as described by Pierce et al.[67]. Briefly, biofilms established for 0 h (preadhesion), 2 h (adherent), or 24 h (mature) were developed by adding 1 × 10^5 yeast cells in 50 or 100 µl of RPMI-1640 to wells of flat-bottom 96-well microtiter plates (Costar, Corning, NY). Fifty or 100 µl aliquots of serial 2-fold dilutions of peptide or antifungal drugs were added to wells in triplicate and incubated for 24 h or 48 h prior to analysis of biofilm metabolic activities. Concentrations of reagents used were as follows: RTD-1 - 0.09 – 100 µg/ml (0.05–48 µM), Fluco – 1–250 µg/ml (3.3–816.3 µM); Caspo- 0.003–8 µg/ml ([…]–7.3 µM). Analysis of the effect of each agent on Candida biofilms was performed using an XTT colorimetric assay. One hundred µl of 1 µM XTT/menadione added to each biofilm well, plates were incubated in the dark for 3 h at 37 °C, and 80 µl of supernatant was transferred to a new 96-well flat-bottom microtiter plate (Greiner Bio-one, Monroe, NC). Absorbance was measured at 490 nm on a SpectraMax® i3x (Molecular Devices). Readings were plotted as average of triplicates after subtracting the corresponding values for negative controls (XTT/menadione only).

The mark [5] stands for this setting: 5 mg/kg i.v., two-compartment model, mean.

Take `CC[C@H](C)C[C@H](C)CCCCCCCCC(=O)N[C@H]1C[C@@H](O)[C@@H](NCCN)NC(=O)[C@@H]2[C@@H](O)CCN2C(=O)[C@H]([C@H](O)CCN)NC(=O)[C@H]([C@H](O)[C@@H](O)c2ccc(O)cc2)NC(=O)[C@@H]2C[C@@H](O)CN2C(=O)[C@H]([C@@H](C)O)NC1=O` [Caspo, caspofungin]: the MIC with C. albicans 43001 (Candida albicans, 43001, RPMI 1640, 25 mM MOPS, 2 mM L-glutamine, 1 × 10^3 CFU/well, 30 °C, 48 h, A600, complete inhibition of growth, duplicate, read-out: MIC) is 2 µg/mL (≈ 1.83 µM); in the data set on C. albicans 53264 (Candida albicans, 53264, RPMI 1640, 25 mM MOPS, 2 mM L-glutamine, 1 × 10^3 CFU/well, 30 °C, 48 h, A600, complete inhibition of growth, duplicate, read-out: MIC), greater than 8 µg/mL; against C. albicans SC5314 (RPMI 1640, 25 mM MOPS, 2 mM L-glutamine, 1 × 10^3 CFU/well, 30 °C, 48 h, A600, complete inhibition of growth, duplicate), 0.06 µg/mL (≈ 0.0549 µM). Moreover, the MFC against C. albicans 43001 (Candida albicans, 43001, RPMI, plating of MIC wells on YPD, ≥99% killing of input inoculum) was 2 µg/mL (≈ 1.83 µM); in the data set on C. albicans 53264 (Candida albicans, 53264, RPMI, plating of MIC wells on YPD, ≥99% killing of input inoculum), greater than 8 µg/mL; in the data set on C. albicans SC5314 (RPMI, plating of MIC wells on YPD, ≥99% killing of input inoculum), 0.25 µg/mL (≈ 0.229 µM). Moreover, the “resistance relative to drug sensitive SC5314” value is given as 33 fold with C. albicans 43001 (strain 43001 vs SC5314, RPMI) and greater than 133 fold with C. albicans 53264 (strain 53264 vs SC5314, RPMI).
Turning to `CC[C@H](C)[C@@H]1NC(=O)[C@@H]2CSSC[C@H](NC(=O)[C@H](CCCNC(=N)N)NC(=O)[C@@H]3CSSC[C@H](NC1=O)C(=O)N[C@@H]([C@@H](C)O)C(=O)N[C@@H](CCCNC(=N)N)C(=O)NCC(=O)N[C@@H](Cc1ccccc1)C(=O)N3)C(=O)N[C@@H](CC(C)C)C(=O)N[C@H]1CSSC[C@H](NC(=O)[C@H](C(C)C)NC(=O)CNC(=O)[C@H](CCCNC(=N)N)NC(=O)[C@H](CCCNC(=N)N)NC1=O)C(=O)N[C@@H](CCCNC(=N)N)C(=O)N2` [RTD-1, Rhesus theta (θ) defensin-1] (cyclo(GFCRCLCRRGVCRCICTR); disulfide 3-16, 5-14, 7-12 (inferred); ring closure inferred), in the data set with C. albicans, the “time to permeabilization of C. albicans to propidium iodide” value is reported as less than 10 min. Besides, the immunogenicity result in data set [1] is “non-immunogenic”. In data set [2] (setting [5]), the “CLd, distributional clearance” value came to 3.248 mL/h; the “K10, elimination rate constant from the central compartment” value amounted to 0.9719 h⁻¹; the “T1/2-λ1, distribution half-life” value was found to be 0.5676 h; the “Vc, central volume of distribution” value is reported as 14.58 mL. In data set [2] (setting [5]), the “Vp, peripheral volume” value was determined as 24.88 mL; the “λ1, distribution rate constant” value was 1.221 h⁻¹; the “λ2, terminal rate constant” value was determined as 0.1039 h⁻¹. Further, the accumulation in plasma entry in data set [2] (daily 5 mg/kg i.p. doses up to 6 days, levels 60 or 240 min after dose) is given as “did not accumulate in plasma”. In data set [2] (mouse, in vivo, ip, 5 mg/kg), the Cmax came to 670 ng/mL, the time to peak (Tmax) came out at 4 h and the bioavailability is 63.4%. In data set [2] (mouse, in vivo, iv, 5 mg/kg), this compound showed a clearance of 0.236 mL/min and a half-life of 6.67 h. The “stability in serum and plasma” value in data set [3] is “highly stable”. In addition, in data set [4], the “biofilm inhibition (XTT)” value was “inhibited biofilm formation”.
